Reference: patent publication US7709223B2, “Method for detecting bacteria with chromogenic substrates for β-D-ribofuranosidase” (priority 2001, dated 2010)
Where a name gives a salt, the structure may show the parent alone.

Tested on: Shigella sonnei
Assay: Hydrolysis on Columbia agar with ferric ammonium citrate
Assay type: cell-based
Parameters: β-Riboside (hydrolysis): key to the marks not given beside the values
Description: The chromogenic β-D-ribofuranoside substrate was added to Columbia agar at a substrate concentration of 300 mg/l. Ferric ammonium citrate was included at 500 mg/l. All ingredients were autoclaved at 116° C. for 20 minutes to ensure sterilisation. Agar plates were then prepared in 90 mm petri dishes. The substrate caused a yellow colouration of the agar.
For each strain tested, a bacterial suspension was prepared in sterile deionised water at an inoculum of approximately 1.5×10^8 colony forming units per ml. This was achieved using a densitometer. 1 μl of each bacterial suspension was then inoculated onto each plate using a multipoint inoculator. Strains were inoculated in parallel onto Columbia agar containing ferric ammonium citrate with no substrate (negative control).
After 18 hours incubation, strains were examined visually for the presence of colour. Any strains producing a black colouration on substrate containing media but not on the negative control plates were deemed to be hydrolysing the substrate.

Measured: β-Riboside (hydrolysis)

O=c1cc(-c2ccc(OC3OC(CO)C(O)C3O)c(O)c2)oc2ccccc12 [DHF-riboside, 3′,4′-Dihydroxyflavone-4′-β-D-ribofuranoside sodium salt]
++: Shigella sonnei NCTC 8219 | Shigella sonnei NCTC 8574 | Shigella sonnei NCTC 8586 | Shigella sonnei NCTC 9774 | Shigella sonnei NCTC 10352
